Key:
[1] = test system: NCI-H441; test: In vivo combination of 224G11 and Doxorubicin on NCI-H441 xenograft model; design: species or system Athymic nude mice; conditions: D11 to D39; Doxorubicin 5 mg/kg i.v.
Procedure: (§1) NCI-H441 cells from ATCC were routinely cultured in RPMI 1640 medium, 10% FCS, 1% L-Glutamine. Cells were split two days before engraftment being in exponential phase of growth. Ten million NCI-H441 cells were engrafted to Athymic nude mice. […] Mice were treated i.p. either with a loading dose of 2 mg of 224G11 Mab/mouse and then twice a week with 1 mg of antibody/mouse or with 4 injections of Doxorubicin (D5, D12, D19, D26) at 5 mg/kg. A third group administered with the combine treatment was also included. Doxorubicin was given by i.v. injections. Tumor volume was measured twice a week and calculated by the formula: π/6×length×width×height and animal weights were monitored every day over the period of Doxorubicin treatment. Statistical analysis was performed at each measured time using either a t-test or a Mann-Whitney test. […] Results are represented in FIG. 46.

[2] = biological target: T1, c-Met-Fc (Homo sapiens, UniProt P08581); test: Displacement of [125I]-HGF binding to immobilized c-Met; conditions: 0.1 pM to 1 μM
T1 construct: c-Met extracellular domain fusion protein (10-15 g/dose/mouse) (R&D Systems, Catalog #358MT); purchased R&D Systems
Procedure: To determine whether the anti-c-Met antibodies were able to displace HGF, binding experiments were set up. Briefly, protein A FlashPlate 96-well microplates (Perkin Elmer) were saturated with 0.5% gelatine in PBS (200 μl/well, 2 h at room temperature) before adding recombinant c-Met-Fc (R&D Systems) as a coating protein. […] of a 1 μg/ml c-Met-Fc solution in PBS were added to each well. Plates were then incubated overnight at 4° C. Free residual Protein A sites were further saturated with a non relevant hIgG (0.5 μg/well in PBS) for 2 h at room temperature. Plates were washed with PBS after each step.
For competition assays, binding of [^125I]-HGF (specific activity ˜2,000 Ci/mmol) at 200 pM to immobilized c-Met was measured in the presence of varying concentrations of the anti-c-Met monoclonal antibodies 11E1, 224G11, 223C4, 227H1 or HGF (R&D Systems) ranging from 0.1 pM to 1 μM in PBS pH 7.4. The plates were incubated at room temperature for 6 h, then counted on a Packard Top Count Microplate Scintillation Counter. Non specific binding was determined in the presence of […] of HGF. The monoclonal antibody 9G4, which is not directed at c-Met but specifically recognizes an E. coli protein, was used as mouse IgG1 isotype control.
Percent of total specific [^125I]-HGF binding was plotted as a function of ligand concentration on semilog graphs. […]

[3] = test system: NCI-H441; test: In vivo combination of 224G11 and Docetaxel on NCI-H441 xenograft model; design: species or system Athymic nude mice; conditions: D11 to D35; Docetaxel 7.5 mg/kg i.p.
Procedure: as §1, with “growth. Nine” for “growth. Ten”, “of Docetaxel” for “of Doxorubicin”, “at 7.5” for “at 5”, “included. Docetaxel” for “included. Doxorubicin”, “by i.p.” for “by i.v.”, “FIG. 47.” for “FIG. 46.”

[4] = test system: G55; conditions: glioblastoma growing independently of HGF; cited from earlier work

T1 sequence (P08581 25-932 limits assumed): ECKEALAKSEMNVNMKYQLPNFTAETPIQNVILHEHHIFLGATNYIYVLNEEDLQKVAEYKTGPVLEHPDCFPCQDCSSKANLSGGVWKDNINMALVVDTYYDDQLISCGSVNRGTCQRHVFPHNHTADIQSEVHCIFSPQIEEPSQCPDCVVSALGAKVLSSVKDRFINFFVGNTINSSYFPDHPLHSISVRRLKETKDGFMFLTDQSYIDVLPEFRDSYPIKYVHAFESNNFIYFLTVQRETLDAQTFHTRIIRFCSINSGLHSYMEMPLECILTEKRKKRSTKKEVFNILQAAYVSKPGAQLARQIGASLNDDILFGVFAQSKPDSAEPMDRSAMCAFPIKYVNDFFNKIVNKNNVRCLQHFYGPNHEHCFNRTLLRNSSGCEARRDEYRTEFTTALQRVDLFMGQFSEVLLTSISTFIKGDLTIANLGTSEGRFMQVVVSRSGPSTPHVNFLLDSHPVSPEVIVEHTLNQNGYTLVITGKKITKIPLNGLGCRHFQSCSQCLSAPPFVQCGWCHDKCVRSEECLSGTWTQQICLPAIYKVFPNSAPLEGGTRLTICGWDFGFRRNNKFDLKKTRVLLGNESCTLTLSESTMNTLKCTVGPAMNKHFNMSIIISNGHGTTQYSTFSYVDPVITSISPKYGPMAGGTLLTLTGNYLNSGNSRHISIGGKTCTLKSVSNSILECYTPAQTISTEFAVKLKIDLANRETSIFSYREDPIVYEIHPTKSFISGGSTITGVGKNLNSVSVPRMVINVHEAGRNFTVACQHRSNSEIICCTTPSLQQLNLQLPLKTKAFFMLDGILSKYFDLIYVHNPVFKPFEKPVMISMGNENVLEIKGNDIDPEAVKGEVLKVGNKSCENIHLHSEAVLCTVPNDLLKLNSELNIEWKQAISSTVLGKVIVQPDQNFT

## COc1cccc2c1C(=O)c1c(O)c3c(c(O)c1C2=O)C[C@@](O)(C(=O)CO)C[C@@H]3O[C@H]1C[C@H](N)[C@H](O)[C@H](C)O1 [Doxorubicin, reference compound]
[1]
  anti-tumor activity compared to the control group: significant anti-tumor activity

## HGF: hepatocyte growth factor (R&D Systems), c-Met ligand used as unlabeled competitor
[2]
  displacement of [125I]-HGF binding to immobilized c-Met: fully displace

## CC(=O)O[C@@]12CO[C@@H]1C[C@H](O)[C@@]1(C)C(=O)[C@H](O)C3=C(C)[C@@H](OC(=O)[C@H](O)[C@@H](NC(=O)OC(C)(C)C)c4ccccc4)C[C@@](O)([C@@H](OC(=O)c4ccccc4)[C@H]21)C3(C)C [Docetaxel, reference compound]
[3]
  anti-tumor activity compared to the control group: significant anti-tumor activity

B1: OA5D5: monovalent engineered form of 5D5 produced as a recombinant protein in E. Coli (Genentech) (antibody, chains of the INN, looked up, V domains shown)
VH: EVQLVESGGGLVQPGGSLRLSCAASGYTFTSYWLHWVRQAPGKGLEWVGMIDPSNSDTRFNPNFKDRFTISADTSKNTAYLQMNSLRAEDTAVYYCATYRSYVTPLDYWGQGTLVTVSS
VL: DIQMTQSPSSLSASVGDRVTITCKSSQSLLYTSSQKNYLAWYQQKPGKAPKLLIYWASTRESGVPSRFSGSGSGTDFTLTISSLQPEDFATYYCQQYYAYPWTFGQGTKVEIK
modifications: one-armed monovalent antibody
[4]
  effect on G55 tumor growth: no significant effect

Source: patent US8871909B2, “Antibodies inhibiting c-Met dimerization and uses thereof” (Pierre Fabre Medicament, priority 2007, dated 2014)
